The values below come from patent US20040043904A1, “N-(4-pyrazolyl) amide derivatives, chemicals for agricultural and horticultural use, and usage of the same” (priority 2003, published 2004).

This assay relates to green peach aphid (Myzus persicae). Put plainly: Insecticidal effect on green peach aphid (Test Example 7). The format is in vivo. Conditions: 144 h, stems and leaves of Chinese cabbage sprayed, parasites counted six days after spraying, read-out: insecticidal effect (control efficacy). An excerpt: Insecticidal Effect on Green Peach Aphid (Myzus persicae)
A Chinese cabbage plant was planted in each of plastic pots with a diameter of 8 cm and a height of 8 cm, and green peach aphids were propagated on the plant. The number of parasites of each pot was counted.
Then, the stems and leaves were sufficiently sprayed with the test solution. After air-drying, the pots were allowed to stand in a greenhouse.
Control efficacy (%)=100[(T×Ca)/(Ta×C)]×100
Ta: number of parasites before spraying in treated group,
T : number of parasites after spraying in treated group,
Ca: number of parasites before spraying in untreated group,
[…]: number of parasites after spraying in untreated group.

For `Cc1nn(C)c(Cl)c1NC(=O)Cc1ccc(-c2ccc(OC(F)(F)F)cc2)cc1` [Compound B-23, 5-chloro-4-(4-(4-trifluoromethoxyphenyl)phenylacetylamino)-1,3-dimethylpyrazole], the pest or weed control at 500 ppm was 100%. To `Cc1nn(C)c(Cl)c1NC(=O)Cc1ccc2oc(CC(C)(C)C)nc2c1` [Compound C-1, 5-chloro-4-(2-(2,2-dimethylpropyl)benzoxazole-5-ylacetylamino)-1,3-dimethylpyrazole] belongs 100%; to `CCn1ncc(NC(=O)Cc2ccc(Oc3ccc(C(F)(F)F)cn3)c(OC)c2)c1Cl` [Compound D-33, 5-chloro-4-(3-methoxy-4-(5-trifluoromethylpyridine-2-yloxy)phenylacetylamino)-1-ethylpyrazole], 100%; to `COc1cc(CC(=O)Nc2cnn(CCCl)c2Cl)ccc1Oc1ccc(C(F)(F)F)cn1` [Compound D-71, 5-chloro-4-(3-methoxy-4-(5-trifluoromethylpyridine-2-yloxy)phenylacetylamino)-1-(2-chloroethyl) pyrazole], 100%. To `CCn1ncc(NC(=O)Cc2ccc(Oc3ccc(C(F)(F)F)nn3)c(OC)c2)c1Cl` [Compound D-78, 5-chloro-4-(3-methoxy-4-(6-trifluoromethylpyridazine-3-yloxy)phenylacetylamino)-1-ethylpyrazole] belongs 100%; to `CCn1ncc(NC(=O)Cc2ccc(Oc3ccc(C(F)(F)F)cn3)c(OC)c2)c1Br` [Compound D-79, 5-bromo-4-(3-methoxy-4-(5-trifluoromethylpyridine-2-yloxy)phenylacetylamino)-1-ethylpyrazole], 100%. Under `CCn1ncc(NC(=O)Cc2ccc(Oc3nc(C(F)(F)F)cs3)c(OC)c2)c1Cl` [Compound D-94, 5-chloro-4-(3-methoxy-4-(4-trifluoromethylthiazole-2-yloxy)phenylacetylamino)-1-ethylpyrazole] stands 100%.
